For assay [1], the system named is HMDM (endogenous human C3aR). The assay is classed as cell-based. To be noted: for pEC50: primary human macrophages, 50,000/well, AlphaLISA p-ERK1/2, n = 4 donors, read-out: EC50 (pERK1/2), HMDM. An excerpt:
HMDMs were generated and cultured as previously described ([20]), with experiments approved by The University of Queensland Human Research Ethics Committee. Briefly, human buffy coat blood from anonymous healthy donors was obtained through the Australian Red Cross Blood Service (Brisbane, Australia). Human CD14+ monocytes were isolated from blood using Lymphoprep density centrifugation (STEMCELL, Melbourne, Australia) followed by CD14+ MACS magnetic bead separation (Miltenyi Biotec, Sydney, Australia). The isolated monocytes were differentiated for 7 days in Iscove’s Modified Dulbecco’s Medium supplemented with 10% FBS, 100 IU/ml penicillin, 100 μg/ml streptomycin and 15 ng/ml recombinant human macrophage colony stimulating factor (BioLegend, San Diego, USA) on 10 mm square dishes (Bio-strategy, Brisbane, Australia). Non-adherent cells were removed by washing with DPBS, and the adherent differentiated HMDMs were harvested by gentle scraping.
(§1) Ligand-induced ERK1/2 phosphorylation was assessed using the AlphaLISA Surefire Ultra p-ERK1/2 (Thr202/Tyr204) kit (PerkinElmer, Melbourne, Australia) following the manufacturer’s protocol as previously described ([18], [20], [22]). Briefly, CHO-K1, CHO-C3aR, CHO-C5aR1, HMDMs (50,000/well) or BMDMs (90,000/well) were seeded in tissue culture-treated 96-well plates (Corning, Corning, USA) for 24 h and serum-starved overnight. All ligand dilutions were prepared in serum-free medium (SFM) containing 0.1% BSA. For inhibition assays, cells were pre-treated with the following ligands (5 µM SB290157, or respective concentrations of hC3a, mC3a, hC5a, hTLQP-21, and mTLQP-21) or the solvent-only control for 30 min before agonist (hC3a, hTLQP-21 and mTLQP-21) addition. The concentration and identity of the ligands are described in detail in the figure legends. For stimulation, cells were treated with ligands at the indicated concentrations for 10 min at RT and then immediately lysed using AlphaLISA lysis buffer on a microplate shaker (450 rpm, 10 min). For the detection of phospho-ERK1/2 content, cell lysate (5 μL/well) was transferred to a 384-well ProxiPlate (PerkinElmer, Melbourne, Australia) and added to the donor and acceptor reaction mix (2.5 μL/well, respectively), followed by a 2-h incubation at RT in the dark. On a Tecan Spark 20M (Tecan, Männedorf, Switzerland), the plate was measured using standard AlphaLISA settings.
(§2) All experiments were conducted in triplicates and repeated on three separate occasions unless otherwise specified. Data was analysed using GraphPad software (Prism 9.1). Data from each individual repeat was normalised accordingly (as specified in the figure legends) before being combined and expressed as mean ± standard error of the mean (S.E.M.) unless otherwise described. For all dose-response studies, logarithmic concentration-response curves were plotted using combined data and analysed to determine the respective potency values. Statistical analysis was performed using two-way ANOVA with Dunnett’s post hoc analysis. Donor-matched comparisons were made for HMDM experiments. Differences were deemed significant when p < 0.05.
Figure 3 Agonistic and antagonistic activities of hTLQP-21 and mTLQP-21 in human monocyte-derived macrophages. Serum-starved HMDMs (50,000/well) were (A) stimulated with medium or respective ligands at the indicated concentrations for 10 min and then lysed, or (B) pre-treated with 5 µM SB290157 for 30 min prior to stimulation. (C) HMDMs were pre-treated with 10 μM hTLQP-21 or mTLQP-21 for 30 min before being stimulated with respective concentrations of human C3a. (D) HMDMs were pre-treated with 10 nM hC3a, 10 μM hTLQP-21 or mTLQP-21 for 30 min before being stimulated with the same concentrations of the above ligands for 10 min and then lysed. (E) HMDMs were pre-treated with 10 μM hTLQP-21 or mTLQP-21 for 30 min before being stimulated with respective concentrations of human C5a for 10 min and then lysed. […]
A general note: Alpha assays give light when donor and acceptor beads are brought close together.

The target in another assay is T1, human C3aR (Homo sapiens, UniProt Q16581).
T1 sequence (Q16581 1-482): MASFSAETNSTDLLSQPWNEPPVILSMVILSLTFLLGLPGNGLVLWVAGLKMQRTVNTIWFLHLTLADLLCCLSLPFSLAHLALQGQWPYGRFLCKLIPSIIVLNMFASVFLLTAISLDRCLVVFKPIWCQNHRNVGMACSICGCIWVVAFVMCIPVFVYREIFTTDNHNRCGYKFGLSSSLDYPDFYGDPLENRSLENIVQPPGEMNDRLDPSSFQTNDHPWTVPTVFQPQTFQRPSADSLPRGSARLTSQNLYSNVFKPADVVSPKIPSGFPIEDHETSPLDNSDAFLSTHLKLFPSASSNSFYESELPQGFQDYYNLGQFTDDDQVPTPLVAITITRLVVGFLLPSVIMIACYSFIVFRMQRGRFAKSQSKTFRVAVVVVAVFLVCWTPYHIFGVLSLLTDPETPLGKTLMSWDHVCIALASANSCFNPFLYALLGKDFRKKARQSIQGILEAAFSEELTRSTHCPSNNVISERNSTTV
The experiment in a line: phospho-ERK1/2 assay in CHO-C3aR cells. To be noted: n = 3-4; for pEC50: CHO cells stably expressing human C3aR, serum-starved, AlphaLISA p-ERK1/2, combined data, read-out: EC50 (pERK1/2), CHO-C3aR. The assay is classed as cell-based. Here is the method: (§3) Cell lines for this study were cultured as previously described ([20]). Non-transfected CHO-K1 cells or CHO cells stably expressing the human C3aR (CHO-C3aR; Product # ES-730-C, PerkinElmer, Melbourne, Australia) were maintained in Ham’s F12 medium containing 10% foetal bovine serum (FBS), 100 IU/ml penicillin and 100 μg/ml streptomycin, with additional 400 μg/ml G418 (In vivoGen, San Diego, USA) added for CHO-C3aR cell culture. HEK293 cells were maintained in DMEM medium containing 10% FBS, 100 IU/ml penicillin and 100 μg/ml streptomycin. All cell lines were maintained in T175 flasks (37°C, 5% CO2) and subcultured at 80-90% confluency using 0.05% trypsin-EDTA in DPBS.
as §1, §2
Figure 1 hTLQP-2 and mTLQP-21 activate ERK signalling in CHO-K1 and CHO-C3aR cells. hTLQP-21, mTLQP-21 and plasma-derived human C3a were tested in (A) non-transfected CHO-K1 or (B) CHO cells stably expressing human C3aR. CHO cells were serum-starved overnight and then stimulated with various ligands for 10 min before being lysed. The phospho-ERK1/2 content in the lysate was measured and expressed as fold-baseline before being combined. The maximum relative pERK1/2 activity induced by each ligand is shown in (C). Data represent mean ± S.E.M. of triplicate measurements from 3-4 independent experiments (n = 3-4). Two-way ANOVA with Dunnett’s post hoc analysis. *P < 0.05, ***P < 0.001, ****P < 0.0001. Ligand treated versus medium treated cells for each cell line.

Assay [2] relates to CHO-K1 cells (endogenous C3aR). Nature of the assay: phospho-ERK1/2 assay in non-transfected CHO-K1 cells. The class given is cell-based, Chinese hamster. The method, then:
as §3
Ligand-induced ERK1/2 phosphorylation was assessed using the AlphaLISA Surefire Ultra p-ERK1/2 (Thr202/Tyr204) kit (PerkinElmer, Melbourne, Australia) following the manufacturer’s protocol as previously described ([18], [20], [22]). Briefly, CHO-K1, CHO-C3aR, CHO-C5aR1, HMDMs (50,000/well) or BMDMs (90,000/well) were seeded in tissue culture-treated 96-well plates (Corning, Corning, USA) for 24 h and serum-starved overnight. […] On a Tecan Spark 20M (Tecan, Männedorf, Switzerland), the plate was measured using standard AlphaLISA settings.
All experiments were conducted in triplicates and repeated on three separate occasions unless otherwise specified. Data was analysed using GraphPad software (Prism 9.1). Data from each individual repeat was normalised accordingly (as specified in the figure legends) before being combined and expressed as mean ± standard error of the mean (S.E.M.) unless otherwise described. For all dose-response studies, logarithmic concentration-response curves were plotted using combined data and analysed to determine the respective potency values. […]
Figure 1 hTLQP-2 and mTLQP-21 activate ERK signalling in CHO-K1 and CHO-C3aR cells. hTLQP-21, mTLQP-21 and plasma-derived human C3a were tested in (A) non-transfected CHO-K1 or (B) CHO cells stably expressing human C3aR. […] The phospho-ERK1/2 content in the lysate was measured and expressed as fold-baseline before being combined. […]

pEC50: −log10 of the molar value.

In the case of “C3a: Table 1 label: human C3a in CHO-C3aR and HMDM, recombinant mouse C3a in BMDM”, the “logEC50 ± SE (pERK1/2), HMDM” value in assay [1] (HMDM, 10 min stimulation at RT, n = 3-4) is -9.9 ± 0.1. The pEC50 in assay [1] (10 min stimulation at RT) was 9.96; in the assay with human C3aR (10 min stimulation at RT), 9.82. The “% C3a activity ± SE, HMDM” value in assay [1] (relative to hC3a, n = 3-4) is on record as 100 ± 6.2%. Besides, the “maximum relative pERK1/2 activity, CHO-C3aR” value with human C3aR (10 min, Figure 1C) stood at 7.3 fold baseline. Also, the “logEC50 ± SE (pERK1/2), CHO-C3aR” value with human C3aR (CHO-C3aR, 10 min stimulation at RT) is given as -9.8 ± 0.1. Further, in the assay with human C3aR (efficacy relative to hC3a, fold baseline normalised), the “% C3a activity ± SE, CHO-C3aR” value is on record as 100 ± 2.8%. In assay [2] (10 min, Figure 1C, n = 3-4), the “maximum relative pERK1/2 activity, CHO-K1” value came out at 2.7 fold baseline. In assay [2] (fold lower than in CHO-C3aR cells), the “relative efficacy of ERK signalling in CHO-K1 versus CHO-C3aR” value was 2.6 fold.
Regarding “hC3a: purified (plasma-derived) human C3a, purchased from Merck”, the pEC50 is 9.96 in assay [1] (10 min stimulation at RT) and 9.82 with human C3aR (10 min stimulation at RT). Moreover, the “ERK1/2 phosphorylation, CHO-K1” value in assay [2] (10 min stimulation at RT, n = 3-4) is “significantly triggered ERK1/2 phosphorylation in CHO-K1 cells”.
